Where two headings read alike, the source gives them in different places. Residues, ends and D or L forms follow the SMILES beside them. *: point of attachment. Cbz = O=C(OCc1ccccc1)*
Legend:
[1] = system: SARS-CoV-2-infected Vero E6 cells; assay: Micro-neutralization assay, virus-induced cytopathic effect in Vero E6 cells; assay type: cell-based
[2] = system: SARS-CoV-2-infected A549/ACE2 cells; assay: microbe, parasite or virus in culture; assay type: cell-based
cruzain = conditions: pH 7.5; ref Li et al., 2021; cited from earlier work
human cathepsin L [3] = target: T1, human cathepsin L (Homo sapiens, UniProt P07711); conditions: for fold more potent for human cathepsin L than for cruzain (Ki*): hCatL vs cruzain; for Ki: read-out: Ki* hCatL, after 30-min incubation, pH 5.5, fit of vs/v0 to Eq. 5
T1 sequence (P07711 114-333): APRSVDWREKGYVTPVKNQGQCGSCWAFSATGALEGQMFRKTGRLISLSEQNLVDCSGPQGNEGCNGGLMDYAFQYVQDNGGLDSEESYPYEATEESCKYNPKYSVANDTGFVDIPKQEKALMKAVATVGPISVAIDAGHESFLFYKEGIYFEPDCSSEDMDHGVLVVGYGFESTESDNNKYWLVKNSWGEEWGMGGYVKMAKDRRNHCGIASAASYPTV
Experimental: (§1) Recombinant proteases were obtained from the following vendors: recombinant human cathepsin L (Millipore Sigma, Athens Research and Technology, Inc.), and human liver cathepsin B (Millipore Sigma), which were used without further purification. […] These samples were then diluted into the same buffer to concentrations of ∼100 nM, and these dilutions were stored at 4°C and used daily until depletion.
(§2) For assays of cathepsin L and B, inhibitors were evaluated in 0.25-ml reaction mixtures containing a buffer of sodium acetate (pH 5.5), 1 mM CHAPS, 1 mM Na2EDTA, and 5 mM DTT at 25°C. The fluorogenic substrate Cbz-Phe-Arg-7-amino-4-methyl-coumarin (Z-FR-AMC) was dissolved in 100% DMSO, as were all inhibitors and aliquots of both substrates, and inhibitors were added to the reaction mixtures with final concentrations of DMSO of 10% (v/v). […] Formation of the fluorescent product AMC was monitored over 30–60-min time courses for reaction mixtures in 96-well black microplates (Greiner). Rates of peptidolysis of the dipeptide-AMC substrate(s) were measured on either a SpectraMax M2 (Molecular Devices) or a Synergy Mx (Biotek, Wisnooki, VT) microplate reader which measured the formation of fluorescence using an excitation wavelength of λex = 360 nm, with detection of emission at λem = 460 nm at ≥8-s intervals. Control samples excluded substrate. The measured relative fluorescence units (RFUs) of generated AMC were converted to reaction rates of μM/s by use of a standard curve of known AMC concentrations obtained for both plate readers.

human cathepsin L [4] = target: T1, human cathepsin L; assay: biochemical
Experimental: as §1, §2

human cathepsin B = target: T2, human cathepsin B (Homo sapiens, UniProt P07858); assay: Kinetic assay of human cathepsin B inhibition (Z-FR-AMC peptidolysis); assay type: biochemical; conditions: after 30-min incubation; pH 5.5; read-out: Ki* hCatB
T2 construct: purchased Millipore Sigma; host or cells: human liver (so in the source)

SARS-CoV-2 3CL protease = SARS-CoV-2 3CL protease (Severe acute respiratory syndrome coronavirus 2, UniProt P0DTD1); assay: Kinetic assay of SARS-CoV-2 3CL-PR inhibition (FRET substrate); assay type: biochemical; conditions: after 30-min incubation; pH 7.2; read-out: Ki* 3CLpro
[5] = system: SARS-CoV-2-infected A549/ACE2 cells; conditions: read-out: Anti-CoV-2 EC50 A549/ACE2 Cells, cited from earlier work
[6] = system: SARS-CoV-2-infected Vero E6 cells; conditions: cited from earlier work
[7] = Severe acute respiratory syndrome coronavirus 2, Vero C1008, 72 h, prevention of CPE, 3 days, read-out: Anti-CoV-2 EC50 Vero E6 Cells
[8] = Severe acute respiratory syndrome coronavirus 2, A549-ACE2, 96 h, prevention of CPE, 4 days, read-out: Anti-CoV-2 EC50 A549/ACE2 Cells
[9] = Severe acute respiratory syndrome coronavirus 2, A549-ACE2, read-out: EC50 A549/ACE2 cells
[10] = Severe acute respiratory syndrome coronavirus 2, A549-ACE2, 96 h, read-out: Anti-CoV-2 EC50 A549/ACE2 Cells
[11] = Ki (initial EI complex), fit of vi/v0 vs. [I] to Eq. 4
[12] = Ki* hCatL, after 30-min incubation, pH 5.5, fit of vs/v0 to Eq. 5
[13] = previously reported, ref Li et al., 2021

Row | Compound | EC50 [1, 7] | Ki (cruzain) | Ki (human cathepsin B) | Ki (SARS-CoV-2 3CL protease) | Ki (human cathepsin L [3]) | also measured
1 | CCC(=O)OC1Oc2ccccc2CC1NC(=O)C(Cc1ccccc1)NC(=O)N1CCN(C)CC1 (stereo not drawn) [Compound 11] | 2500 nM |  |  |  |  | EC50 [2, 8]: 620 nM; EC50 [2, 9]: 625 nM
2 | O=C(N[C@@H](Cc1ccccc1)C(=O)N[C@H]1Cc2ccccc2OC1O)OCc1ccccc1 (stereo partly drawn) [Compound 2, Cbz-Phe-o-Tyr-CHO] | 10000 ± 5000 nM | 49 ± 2 nM | 4500 nM | > 10000 nM |  | fold faster k4 than aldehyde 1 (human cathepsin L [3]; conversion of EI* to EI): ~5 fold; fold more potent for human cathepsin L than for cruzain (Ki*) (human cathepsin L [3]): 3.9 fold; k4 (reversion of EI* to EI) (human cathepsin L [3]; intercept of kobs vs. [I], fit to Eq. 3): 0.0016 ± 0.0002 s⁻¹; fold less potent inhibitor of cathepsin L than 1 (Ki*) (human cathepsin L [3]; relative to aldehyde 1): 100 fold; EC50 [2, 10]: > 20000 nM; Ki (human cathepsin L [4]; [11]): 54 ± 6 nM; Ki (human cathepsin L [4]; [12]): 12.6 ± 0.4 nM; Ki (human cathepsin L [4]; k4Ki/k3 ∼ Ki*, calculated from the Eq. 3 parameters): ~200 nM
3 | CC(C)(C)[C@H](NC(=O)C(F)(F)F)C(=O)N1C[C@H]2[C@@H]([C@H]1C(=O)N[C@H](C#N)C[C@@H]1CCNC1=O)C2(C)C [PF-07321332, reference compound] | > 20000 nM |  |  |  |  | EC50 [2, 10]: 470 nM; EC50 ([5]; ref Owen et al. (2021)): 77 nM; EC50 ([6]; ref Owen et al. (2021), read-out: Anti-CoV-2 EC50 Vero E6 Cells): 74 nM
4 | Cc1ccc2c(c1)C[C@H](NC(=O)[C@H](Cc1ccccc1)NC(=O)OCc1ccccc1)C(O)O2 (stereo partly drawn) [Compound 4] |  | 103 ± 5 nM | 6100 nM | > 10000 nM | 26 ± 0.9 nM | fold increase in Ki* compared to 2 (human cathepsin L [3]; cathepsin L): 2 fold
5 | CN1CCN(C(=O)N[C@@H](Cc2ccccc2)C(=O)N[C@H](/C=C/S(=O)(=O)c2ccccc2)CCc2ccccc2)CC1 [Compound K777] |  |  |  |  |  | EC50 ([1]; Severe acute respiratory syndrome coronavirus 2, Vero C1008, 72 h, read-out: Anti-CoV-2 EC50 Vero E6 Cells): 150 nM; EC50 ([1]; Severe acute respiratory syndrome coronavirus 2, Vero C1008, read-out: EC50 Vero E6 cells): 156 nM; EC50 ([5]; ref Mellott et al. (2021)): < 78 nM; EC50 ([6]; previously found, ref Mellott et al., 2021, read-out: EC50 Vero E6 cells): 625 nM; EC50 ([6]; ref Mellott et al. (2021), read-out: Anti-CoV-2 EC50 Vero E6 Cells): 620 nM
6 | CC(C)C(=O)OC1Oc2ccccc2CC1NC(=O)C(Cc1ccccc1)NC(=O)N1CCN(C)CC1 (stereo not drawn) [Compound 12] | 3750 nM |  |  |  |  | EC50 ([1]; prevention of CPE, 3 days, read-out: Anti-CoV-2 EC50 Vero E6 Cells): 4000 nM; EC50 [2, 8]: 310 nM; EC50 [2, 9]: 156 nM
7 | O=C(N[C@@H](Cc1ccccc1)C(=O)N[C@H]1Cc2cc(F)ccc2OC1O)OCc1ccccc1 (stereo partly drawn) [Compound 6] | 4000 nM | 48 ± 2 nM | 2300 nM | > 10000 nM | 10.3 ± 0.5 nM | 
8 | CC(=O)OC1Oc2ccccc2CC1NC(=O)C(Cc1ccccc1)NC(=O)N1CCN(C)CC1 (stereo not drawn) [Compound 10] | 2500 nM |  |  |  |  | EC50 [2, 8]: 310 nM; EC50 [2, 9]: 312 nM
9 | CC(C)[C@H](NC(=O)OCc1ccccc1)C(=O)N[C@@H](CC1CCCCC1)C(=O)N[C@H]1Cc2cccnc2OC1O (stereo partly drawn) [Compound 9] |  |  |  | 9 ± 2 nM |  | EC50 [5, 13]: 3750 nM; Ki (human cathepsin L [4]; [12]): 22 ± 4 nM; effect in SARS-CoV-2-infected Vero E6 cells [6, 13]: no effect
10 | COC(=O)c1ccc2c(c1)C[C@H](NC(=O)[C@H](Cc1ccccc1)NC(=O)OCc1ccccc1)C(O)O2 (stereo partly drawn) [Compound 7] | 2500 nM | 18 ± 0.5 nM | 670 ± 30 nM | > 10000 nM | 4.8 ± 0.2 nM | fold improved potency over 2 (human cathepsin L [3]; cathepsin L): 2.6 fold
11 | CN1CCN(C(=O)NC(Cc2ccccc2)C(=O)NC2Cc3ccccc3OC2O)CC1 (stereo not drawn) [Compound 8, NMe-Pip-Phe-o-Tyr-CHO] | 9000 ± 2000 nM | 47 ± 2 nM | 1270 ± 70 nM | > 10000 nM |  | anti-viral effect in infected A549/ACE2 cells ([2]; in words): no anti-viral effect; Ki (human cathepsin L [4]; [11]): 22 ± 1 nM; Ki (human cathepsin L [4]; [12]): 9 ± 0.4 nM
12 | COc1ccc2c(c1)C[C@H](NC(=O)[C@H](Cc1ccccc1)NC(=O)OCc1ccccc1)C(O)O2 (stereo partly drawn) [Compound 3] |  | 350 ± 30 nM | 5500 nM | > 10000 nM | 17 ± 0.9 nM | fold increase in Ki* compared to 2 (human cathepsin L [3]; cathepsin L): 1.4 fold
13 | O=C[C@H](Cc1ccccc1)NC(=O)[C@H](Cc1ccccc1)NC(=O)OCc1ccccc1 [Compound 1, Cbz-Phe-Phe-CHO] (Cbz-Phe-Phe-aldehyde) | 470 nM | 0.44 ± 0.02 nM |  | > 10000 nM |  | EC50 ([1]; Severe acute respiratory syndrome coronavirus 2, Vero C1008, repeat of the experiment with a different sample of 1, read-out: Anti-CoV-2 EC50 Vero E6 Cells): 7500 nM; fold more potent for human cathepsin L than for cruzain (Ki*) (human cathepsin L [3]): 3 fold; EC50 [2, 10]: > 20000 nM; Ki (human cathepsin L [4]; [11]): 0.18 ± 0.22 nM; Ki (human cathepsin L [4]; [12]): 0.14 ± 0.01 nM
14 | O=C(N[C@@H](Cc1ccccc1)C(=O)N[C@H]1Cc2cc(Cl)ccc2OC1O)OCc1ccccc1 (stereo partly drawn) [Compound 5] |  | 70 ± 10 nM | 1400 ± 100 nM | > 10000 nM | 12.1 ± 0.3 nM | 

Source: publication PMC9291521 (Frontiers in Chemistry, 2022)
